In patent US20110052688A1, “SOLID DISPERSION COMPOSITION” (priority 2006, published 2011):

Experiment: Solubility of fluvastatin sodium in solvents
Format: physicochemical
Settings: in water, alcohols and acetone
Text: In one aspect, the solvent-based process uses a solvent, such as water, non-organic solvents, and organic solvents, to dissolve and intimately disperse or dissolve the drug and the one or more pharmaceutical acceptable polymers. The solvent is later removed by evaporation or other ways while the drug/polymer solid dispersion is collected into a solid dosage form. The use of organic solvents may generate hazardous and toxic wastes to the environment. If possible, water is used for water soluble drugs to prepare a dispersion. Other suitable solvents may be, for example, alcohols and acetone for the use of water-insoluble polymers.

Solubility: soluble
SMILES: CC(C)n1c(/C=C/C(O)CC(O)CC(=O)O)c(-c2ccc(F)cc2)c2ccccc21 (stereo not drawn) [fluvastatin sodium, [R*,S*-(E)]=(±)-7-[3-(4-fluorophenyl)-1-(1-methylethyl)-1Hindol-2-yl]-3,5-dihydroxy-6-heptenoic acid]
